Measurements taken from patent US9163012B2, “Carbamate and urea inhibitors of 11β-hydroxysteroid dehydrogenase 1” (Vitae Pharmaceuticals, Inc., priority 2009, dated 2015).

Experiments:
Type in all cases: biochemical
11β-HSD1 [1] = biological target: T1, 11β-HSD1 (Homo sapiens (Human), UniProt P28845); experiment: Biological Test Example 4: HTRF assay of 11β-HSD1 in human liver microsomes; conditions: HTRF cortisol detection
Experimental: In vitro inhibition of 11β-HSD1 by test compounds is determined with HTRF (Homogeneous Time-Resolved Fluorescence) technology (cisbio international, France) detecting cortisol generated from […] by human liver microsomes. […] Cortisol generated in the reaction is then detected with a competitive immunoassay, involving two HTRF conjugates: cortisol linked to XL665 and anti-cortisol antibody labeled with Europium cryptate. The incubation period for detection reaction is typically 2 hours. […] The ratio of the two emission signals is then calculated (Em665*10000/Em615). […] Each assay also contains a calibration curve with cortisol to transform the fluorescent data into cortisol concentrations. Percent inhibition (% CTL) of each compound is determined relative to the carbenoxolone signal and IC50 curves are generated.
Target sequence in this assay (P28845 whole entry): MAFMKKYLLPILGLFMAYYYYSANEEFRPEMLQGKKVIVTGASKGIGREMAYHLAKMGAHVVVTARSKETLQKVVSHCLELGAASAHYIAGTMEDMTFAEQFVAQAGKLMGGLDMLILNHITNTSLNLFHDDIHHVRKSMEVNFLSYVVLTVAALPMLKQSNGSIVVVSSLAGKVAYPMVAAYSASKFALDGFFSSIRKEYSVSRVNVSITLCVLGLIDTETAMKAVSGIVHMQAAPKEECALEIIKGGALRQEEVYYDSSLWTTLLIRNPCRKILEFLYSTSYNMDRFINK

11β-HSD1 [2] = biological target: T1, 11β-HSD1; experiment: Biological Test Example 3: inhibition of purified recombinant 11β-HSD1 (SPA); conditions: purified recombinant 11β-HSD1 expressed in E. coli, read-out: IC50 Range
Experimental: The inhibition of purified 11β-HSD1 by compounds of Formula I is measured using a Scintillation Proximity Assay. All reactions are carried out at room temperature in 96 well flexible Microbeta reaction plates. First, 1 μL of a 0.1 mM solution of a compound of Formula I is mixed in DMSO diluted in half-log increments (8 points) starting at 1 μM final concentration. To this dot is added 50 μL of substrate solution (50 mM HEPES, pH 7.4, 100 mM KCl, 5 mM NaCl, 2 mM MgCl2 containing 20 μM ^3H cortisone, 1 mM NADPH). […] The reaction is then incubated for 90 minutes, and stopped by adding 50 μl of SPA bead mix (18-β-glycyrrhetinic acid, 10 μM final, 5 mg/ml protein A coated YSi SPA beads, and 1 ug/ml α-cortisol antibody (East Coast Biologics)). The plate is shaken for 120 minutes, and the radioactivity corresponding to ^3H cortisol is measured on a Wallac Microbeta.
Target sequence in this assay (P28845 whole entry, species assumed): as the sequence (P28845 whole entry) above

11β-HSD1 [3] = biological target: T1, 11β-HSD1; experiment: Biological Test Example 1: inhibition of a microsomal preparation of 11β-HSD1 (SPA); conditions: for Average % inhibition at 100 nM / IC50: Biological Test Example 1
Target sequence in this assay (P28845 whole entry): as above

[4] = microsomes from CHO cells overexpressing human 11β-HSD1, read-out: IC50 Range

SMILES: N#Cc1ccnc(O[C@@H]2CCN(C(=O)OC3C4CC5CC3CC(O)(C5)C4)C2)c1 (stereo partly drawn) [Example 79, (R)-3-(4-Cyano-hyridin-2-yloxy)-pyrrolidine-1-carboxylic acid 5-hydroxy-adamantan-2-yl ester]
- IC50 (11β-HSD1 [1]): > 10000 nM

SMILES: CCOC(=O)C1(Cc2ccccc2)CCCN(C(=O)OC2C3CC4CC(C3)CC2C4)C1 (stereo not drawn) [EXAMPLE 13, 1-(2-adamantyl) 3-ethyl 3-benzylpiperidine-1,3-dicarboxylate]
- IC50 (11β-HSD1 [2]): < 100 nM

SMILES: O=C(OC1C2CC3CC(C2)CC1C3)N1CCC(N2C(=O)Cc3ccccc32)CC1 (stereo not drawn) [EXAMPLE 27, 2-adamantyl 4-(2-oxoindolin-1-yl)piperidine-1-carboxylate]
- IC50 (11β-HSD1 [2]): < 100 nM

SMILES: N#Cc1ccn([C@@H]2CCN(C(=O)OC3C4CC5CC3CC(O)(C5)C4)C2)c(=O)c1 (single isomer, unassigned; isomer 1) [Example 78 Isomer 1]
- IC50 (11β-HSD1 [1]): > 10000 nM

SMILES: N#Cc1ccn([C@@H]2CCN(C(=O)OC3C4CC5CC3CC(O)(C5)C4)C2)c(=O)c1 (single isomer, unassigned; isomer 2) [Example 78 Isomer 2]
- IC50 (11β-HSD1 [1]): 1170 nM

SMILES: O=C(OC1C2CC3CC(C2)CC1C3)N1CCCC1Cc1ccccc1 (stereo not drawn) [EXAMPLE 9, 2-adamantyl 2-benzylpyrrolidine-1-carboxylate]
- IC50 (11β-HSD1 [2]): < 100 nM

SMILES: N#Cc1ccc(=O)n([C@@H]2CCN(C(=O)OC3C4CC5CC3CC(O)(C5)C4)C2)c1 (stereo partly drawn) [Example 77, (R)-3-(5-Cyano-2-oxo-2H-pyridin-1-yl)-pyrrolidine-1-carboxylic acid 5-hydroxy-adamantan-2-yl ester]
- IC50 (11β-HSD1 [1]): > 10000 nM

SMILES: Cc1ccccc1C1(CC(=O)O)CCN(C(=O)OC2C3CC4CC(C3)CC2C4)CC1 (stereo not drawn) [EXAMPLE 12, 2-(1-(2-adamantyloxycarbonyl)-4-o-tolylpiperidin-4-yl)acetic acid]
- IC50 (11β-HSD1 [2]): 100 to 1000 nM

SMILES: O=C(OC1C2CC3CC(C2)CC1C3)N1CCC(Cc2ccccc2)C1 (stereo not drawn) [EXAMPLE 10, 2-adamantyl 3-benzylpyrrolidine-1-carboxylate]
- IC50 (11β-HSD1 [2]): < 100 nM

SMILES: O=C(OC1C2CC3CC(C2)CC1C3)N1CCCC1c1ccccc1 (stereo not drawn) [EXAMPLE 7, 2-adamantyl 2-phenylpyrrolidine-1-carboxylate]
- IC50 (11β-HSD1 [2]): < 100 nM

SMILES: O=C(OC1C2CC3CC(C2)CC1C3)N1CCC(c2ccccc2)C1 (stereo not drawn) [EXAMPLE 8, 2-adamantyl 3-phenylpyrrolidine-1-carboxylate]
- IC50 (11β-HSD1 [2]): < 100 nM

SMILES: NC(=O)[C@]12CC3CC(C1)[C@@H](OC(=O)N1CCC(c4ncc(Cl)cn4)C1)C(C3)C2 (single isomer, unassigned) [EXAMPLE 26 Isomer 2, cis-(1-carbamoyl-4-adamantyl) 3-(5-chloropyrimidin-2-yl)pyrrolidine-1-carboxylate]
- Average % inhibition at 100 nM (11β-HSD1 [3]; 100 nM compound): 26.3%
- IC50 (11β-HSD1 [3]; [4]): > 100 nM
- IC50 (11β-HSD1 [3]; read-out: IC50): > 100 nM

SMILES: Cc1ccc(C2CCN(C(=O)OC3C4CC5CC3CC(C(N)=O)(C5)C4)C2)nn1 (single isomer, unassigned) [EXAMPLE 37 Isomer 1, trans-1-carbamoyl-4-adamantyl 3-(6-methylpyridazin-3-yl)pyrrolidine-1-carboxylate]
- Average % inhibition at 100 nM (11β-HSD1 [3]; 100 nM compound): 76.6%

SMILES: NC(=O)[C@]12CC3CC(C1)[C@@H](OC(=O)N1CC[C@H](n4c(=O)[nH]c5ccccc54)C1)C(C3)C2 [EXAMPLE 60, (S)-trans-1-carbamoyl-4-adamantyl 3-(2-oxo-2,3-dihydro-1H-benzo[d]imidazol-1-yl)pyrrolidine-1-carboxylate]
- IC50 (11β-HSD1 [3]; [4]): < 100 nM
- IC50 (11β-HSD1 [3]; read-out: IC50): 0.76 nM
- inhibition at 0.1 µM (11β-HSD1 [3]; read-out: Average % inhibition at 100 nM, Biological Test Example 1, 100 nM compound): 93.9%

SMILES: Cn1cc(-c2cnc(C3CCN(C(=O)OC4C5CC6CC4CC(C(N)=O)(C6)C5)C3)nc2)ccc1=O (single isomer, unassigned) [EXAMPLE 58 Isomer 2, 1-carbamoyl-4-adamantyl 3-(5-(1-methyl-6-oxo-1,6-dihydropyridin-3-yl)pyrimidin-2-yl)pyrrolidine-1-carboxylate]
- Average % inhibition at 100 nM (11β-HSD1 [3]; 100 nM compound): 3.8%
- IC50 (11β-HSD1 [3]; [4]): > 100 nM
- IC50 (11β-HSD1 [3]; read-out: IC50): > 100 nM
